Values quoted from earlier work, collected in patent US20110044993A1, “METHOD FOR THE PREVENTION AND TREATMENT OF CANCER BY INHIBITION OF GPVI” (priority 2008, published 2011).

Molecular target: T1, GPVI (Homo sapiens, UniProt Q9HCN6)
T1 sequence (Q9HCN6 21-339): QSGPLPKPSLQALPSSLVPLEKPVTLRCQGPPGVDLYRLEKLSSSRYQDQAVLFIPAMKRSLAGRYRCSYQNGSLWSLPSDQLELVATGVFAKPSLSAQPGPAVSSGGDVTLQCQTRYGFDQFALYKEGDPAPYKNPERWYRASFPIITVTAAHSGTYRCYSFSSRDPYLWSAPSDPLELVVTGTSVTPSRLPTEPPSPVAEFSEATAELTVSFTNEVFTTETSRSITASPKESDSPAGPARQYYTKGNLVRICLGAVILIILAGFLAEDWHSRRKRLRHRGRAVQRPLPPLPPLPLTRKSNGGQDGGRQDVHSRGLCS
T1 sequence (P30273 19-86 partner): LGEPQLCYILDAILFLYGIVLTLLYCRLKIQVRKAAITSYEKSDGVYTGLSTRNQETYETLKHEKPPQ
Conditions: cited from earlier work

## CCCCc1nc(Cl)c(C=O)n1Cc1ccc(-c2ccccc2-c2nn[nH]n2)cc1 [EXP3179]
  Inhibition of GPVI: inhibits GPVI
